Experimental findings from article PMC12259270, “Sensory neuron–expressed FGF13 controls nociceptive signaling in diabetic neuropathy models” (The Journal of Clinical Investigation, 2025) are described below.

In this test the target is T1, FGF13R110A/Nav1.7 complex (Homo sapiens, UniProt Q15858+Q92913, R110A).
T1 construct: Full-length FGF13-1b (aa 1-192) was subcloned into appropriate plasmids; Nav1.7 residues 1780-1977; expressed in transfected cells; host or cells: HEK293 (inferred; the LCA paragraph only says 'cells')
T1 sequence (Q92913 1-192 isoform Q92913-2 R57A): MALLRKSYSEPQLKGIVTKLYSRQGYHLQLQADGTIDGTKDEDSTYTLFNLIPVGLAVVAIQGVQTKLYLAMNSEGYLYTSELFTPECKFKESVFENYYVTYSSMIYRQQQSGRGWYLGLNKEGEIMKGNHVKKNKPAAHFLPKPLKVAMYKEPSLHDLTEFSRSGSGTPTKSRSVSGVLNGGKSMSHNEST
T1 sequence (Q15858 1791-1988): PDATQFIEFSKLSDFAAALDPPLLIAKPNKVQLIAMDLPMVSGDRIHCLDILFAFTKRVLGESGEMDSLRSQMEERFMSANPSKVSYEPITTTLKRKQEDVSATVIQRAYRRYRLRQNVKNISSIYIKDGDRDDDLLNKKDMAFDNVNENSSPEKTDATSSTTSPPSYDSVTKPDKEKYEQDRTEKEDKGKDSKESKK
Put plainly: LCA, CLuc-FGF13R110A/CD4-Nav1.7-CTD-NLuc. It counts as cell-based. As to conditions: for activity against the FGF13R110A/Nav1.7 complex: LCA, PW164 20 μM, ZL192 50 μM. From the text:
The respective gene ID numbers used in this study are as follows: NM_033642 (human, FGF13-1b) and NM_002977 (human SCN9A). Full-length FGF13-1b (aa 1-192) was subcloned into appropriate plasmids for use in this investigation, unless otherwise noted. For consistency with AlphaFold modeling presented, numbering of point mutations to FGF13-1b are based on the longest FGF13 isoform (FGF13-1a, NM_004114.2). CLuc-FGF13, […]
and constructs expressing the CLuc or the NLuc fragments of Firefly ( Photinus pyralis) luciferase (24) respectively were engineered, mutated (CLuc-FGF13R110A) and sequenced at the Molecular Genomics Core (University of Texas Medical Branch). The CD4 -Nav1.7-CTD-NLuc cassette was synthesized from GeneArt (Nav1.7 residues 1780-1977) (ThermoFisher) and subcloned at 5'-HindIII and 3’-BsiWi restriction sites in pcDNA3.1 (Invitrogen). Additionally, FGF13 was amplified with polymerase chain reaction (PCR) by using gene-specific primers, and subcloned in pcDNA3.1 at 5’ -BsiWi and 3’-Not I restriction sites. […]
Cell Culture and transfections
HEK293 cells were purchased from ATCC (catalog # CRL-1573). Cells were cultured and incubated at 37 °C with 5% CO2 in medium with equal volumes of Dulbecco modified essential medium (DMEM) and F12 […]
Split-luciferase Complementation Assay (LCA)
Twenty-four hours post transfection, cells were trypsinized using TrypLE (Gibco; cat # 12604013), centrifuged at 1750 rpm for 5 min, triturated in medium, and seeded into white clear-bottom 96-well CELLSTAR µClear® plates (Greiner Bio -One; cat # 655073 ) at ~0.8 x 10^5 cells per well in 200 µl of medium. The cells were incubated for another 24 hours, and then the growth medium was replaced with 100 µl serum -free, phenol red -free DMEM/F-12 medium (Invitrogen). All compounds from the PW - and the ZL-series, including PW164 and ZL192, were dissolved in DMSO, added to a final concentration of 1 –500 μM (0.5 % DMSO) in the serum -free medium and then cells were incubated for two hours. The bioluminescence reaction was initiated by injection of 100 μl of D -luciferin substrate (1.5 mg/ml dissolved in PBS) using a Synergy H4 multimode microplate reader (BioTek). Luminescence readings were initiated after 3 s of mild plate shaking and performed at 2 min intervals for 20-30 min with integration times of 0.5 s, and the c ells were maintained throughout the measurements at 37 °C. Raw signal intensity was computed by averaging peak luminescence plus two adjacent time points.
Normalized signal intensity was expressed as the percentage of mean signal intensity relative to per plate control wells treated with 0.5% DMSO.
Surface plasmon resonance (SPR)
All SPR experiments were performed on a Biacore T100 (GE Healthcare). Biotin-Nav1.7-CTD peptide […]

Where “and” joins values, the source holds several entries; their conditions need not be identical. Equal entries are not always repeated. Residues, ends and D or L forms follow the SMILES beside them. *: point of attachment. Cbz = O=C(OCc1ccccc1)*; NHPh = c1ccc(N*)cc1; OtBu = CC(C)(C)O*

In the case of `COC(=O)[C@@H](NC(=O)[C@H](CCC(=O)OC(C)(C)C)NC(=O)[C@H](CC(C)C)NC(=O)[C@@H]1CCCN1C(=O)OCc1ccccc1)C(C)C` [PW164] (Cbz-PLE(OtBu)V-OMe), the “activity against the FGF13R110A/Nav1.7 complex” value is given as “prevented PW164 binding”. The “Percentage luminescence, single replicates” value (Fig 1B, FGF13R110A, PW164 (20 μM)) was 93.615% and 94.3116% and 89.4358% and 83.8635% and 99.0481% and 84.8386% and 92.9185% and 91.1075% and 93.4757% and 87.3462% and 108.8%.
As for `CC(=O)N[C@@H](Cc1ccccc1)C(=O)N[C@@H](CC(C)C)C(=O)N1CCC[C@H]1C(=O)N[C@@H](CCCCN)C(=O)Nc1ccccc1` [ZL192] (Ac-FLPK-NHPh), the “activity against the FGF13R110A/Nav1.7 complex” value is “no agonist activity”. Also, the “LCA signal, FGF13R110A (Figure 1B), individual replicates” value (FGF13R110A, ZL192 vs Vehicle) is 170.87 and 102.219 and 90.2721 and 84.4389 and 144.478 and 146.648 and 93.2954 and 156.251 and 109.034 and 101.512 and 90.7701 and 115.348.
